Assays:
Details in all cases: compound 10.0 µM
ABL1 (human) = ABL1 (human) (UniProt P00519)
ACVR1 (human) = ACVR1 (human) (UniProt Q04771)
BRSK2 (human) = BRSK2 (human) (UniProt Q8IWQ3)
CAMK1G (human) = CAMK1G (human) (UniProt Q96NX5)
CDC42BPB (human) = CDC42BPB (human) (UniProt Q9Y5S2)
CDK1 CCNA2 (human) = CDK1 CCNA2 (human) (UniProt P20248+P06493)
CDK2 CCNE1 (human) = CDK2 CCNE1 (human) (UniProt P24864+P24941)
CSNK1G3 (human) = CSNK1G3 (human) (UniProt Q9Y6M4)
DDR2 (human) = DDR2 (human) (UniProt Q16832)
Sequence of DDR2 (human) (Q16832 whole entry, looked up): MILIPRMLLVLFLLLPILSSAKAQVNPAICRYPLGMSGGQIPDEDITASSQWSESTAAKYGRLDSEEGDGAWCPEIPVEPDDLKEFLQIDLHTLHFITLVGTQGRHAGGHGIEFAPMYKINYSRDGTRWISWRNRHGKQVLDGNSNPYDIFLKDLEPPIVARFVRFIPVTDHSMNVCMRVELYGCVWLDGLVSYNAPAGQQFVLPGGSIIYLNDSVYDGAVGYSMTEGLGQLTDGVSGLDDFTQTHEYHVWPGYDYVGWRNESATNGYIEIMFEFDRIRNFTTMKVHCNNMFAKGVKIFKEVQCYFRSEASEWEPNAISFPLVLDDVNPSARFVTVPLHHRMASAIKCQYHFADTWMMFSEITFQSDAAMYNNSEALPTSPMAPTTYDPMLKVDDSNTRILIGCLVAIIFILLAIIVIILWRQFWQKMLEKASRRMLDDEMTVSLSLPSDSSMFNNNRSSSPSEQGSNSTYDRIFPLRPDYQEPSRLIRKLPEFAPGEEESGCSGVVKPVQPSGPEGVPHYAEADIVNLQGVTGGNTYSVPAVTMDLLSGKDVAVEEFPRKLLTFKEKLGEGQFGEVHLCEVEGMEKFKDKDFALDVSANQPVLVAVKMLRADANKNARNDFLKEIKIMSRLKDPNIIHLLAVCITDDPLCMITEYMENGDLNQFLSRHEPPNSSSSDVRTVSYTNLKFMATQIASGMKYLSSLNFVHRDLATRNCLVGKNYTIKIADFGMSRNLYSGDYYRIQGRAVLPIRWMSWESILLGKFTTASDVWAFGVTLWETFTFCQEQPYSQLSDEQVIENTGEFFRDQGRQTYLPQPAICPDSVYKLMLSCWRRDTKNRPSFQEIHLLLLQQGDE

DMPK (human) = DMPK (human) (UniProt Q09013)
ERBB4 (human) = ERBB4 (human) (UniProt Q15303)
FGFR1 (human) = FGFR1 (human) (UniProt P11362)
FYN (human) = FYN (human) (UniProt P06241)
HIPK1 (human) = HIPK1 (human) (UniProt Q86Z02)
KIT (human) = KIT (human) (UniProt P10721)
MAP2K1 (human) = MAP2K1 (human) (UniProt Q02750)
Sequence of MAP2K1 (human) (Q02750 whole entry, looked up): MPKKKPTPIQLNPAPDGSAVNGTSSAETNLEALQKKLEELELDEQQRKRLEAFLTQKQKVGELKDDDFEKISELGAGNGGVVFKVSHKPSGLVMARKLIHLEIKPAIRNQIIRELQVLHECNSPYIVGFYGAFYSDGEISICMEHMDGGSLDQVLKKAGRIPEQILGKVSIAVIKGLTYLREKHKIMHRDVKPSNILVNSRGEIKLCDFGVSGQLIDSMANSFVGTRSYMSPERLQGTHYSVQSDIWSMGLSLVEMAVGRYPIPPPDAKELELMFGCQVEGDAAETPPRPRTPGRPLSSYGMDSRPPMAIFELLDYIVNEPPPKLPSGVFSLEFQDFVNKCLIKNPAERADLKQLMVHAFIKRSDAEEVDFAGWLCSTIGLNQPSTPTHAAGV

MAPKAPK5 (human) = MAPKAPK5 (human) (UniProt Q8IW41)
MARK2 (human) = MARK2 (human) (UniProt Q7KZI7)
MARK3 (human) = MARK3 (human) (UniProt P27448)
MKNK1 (human) = MKNK1 (human) (UniProt Q9BUB5)
MKNK2 (human) = MKNK2 (human) (UniProt Q9HBH9)
MST1R (human) = MST1R (human) (UniProt Q04912)
MYLK2 (human) = MYLK2 (human) (UniProt Q9H1R3)
Sequence of MYLK2 (human) (Q9H1R3 whole entry, looked up): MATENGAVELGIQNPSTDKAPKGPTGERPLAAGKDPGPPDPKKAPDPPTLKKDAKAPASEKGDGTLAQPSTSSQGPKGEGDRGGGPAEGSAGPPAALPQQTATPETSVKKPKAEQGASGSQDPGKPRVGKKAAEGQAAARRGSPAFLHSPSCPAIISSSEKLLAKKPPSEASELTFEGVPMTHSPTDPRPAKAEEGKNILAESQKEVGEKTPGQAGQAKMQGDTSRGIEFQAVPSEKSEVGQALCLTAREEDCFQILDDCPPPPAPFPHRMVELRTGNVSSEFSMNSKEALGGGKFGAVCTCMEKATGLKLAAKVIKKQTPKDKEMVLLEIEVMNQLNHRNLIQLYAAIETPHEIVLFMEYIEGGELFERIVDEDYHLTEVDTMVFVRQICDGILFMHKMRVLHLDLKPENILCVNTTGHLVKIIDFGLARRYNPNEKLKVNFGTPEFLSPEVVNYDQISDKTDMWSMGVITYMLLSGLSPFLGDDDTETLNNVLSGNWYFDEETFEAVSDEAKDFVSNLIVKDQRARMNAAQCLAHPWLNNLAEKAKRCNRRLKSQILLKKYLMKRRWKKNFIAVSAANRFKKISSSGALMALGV

NEK2 (human) = NEK2 (human) (UniProt P51955)
NLK (human) = NLK (human) (UniProt Q9UBE8)
OXSR1 (human) = OXSR1 (human) (UniProt O95747)
PAK3 (human) = PAK3 (human) (UniProt O75914)
PLK3 (human) = PLK3 (human) (UniProt Q9H4B4)
Sequence of PLK3 (human) (Q9H4B4 whole entry, looked up): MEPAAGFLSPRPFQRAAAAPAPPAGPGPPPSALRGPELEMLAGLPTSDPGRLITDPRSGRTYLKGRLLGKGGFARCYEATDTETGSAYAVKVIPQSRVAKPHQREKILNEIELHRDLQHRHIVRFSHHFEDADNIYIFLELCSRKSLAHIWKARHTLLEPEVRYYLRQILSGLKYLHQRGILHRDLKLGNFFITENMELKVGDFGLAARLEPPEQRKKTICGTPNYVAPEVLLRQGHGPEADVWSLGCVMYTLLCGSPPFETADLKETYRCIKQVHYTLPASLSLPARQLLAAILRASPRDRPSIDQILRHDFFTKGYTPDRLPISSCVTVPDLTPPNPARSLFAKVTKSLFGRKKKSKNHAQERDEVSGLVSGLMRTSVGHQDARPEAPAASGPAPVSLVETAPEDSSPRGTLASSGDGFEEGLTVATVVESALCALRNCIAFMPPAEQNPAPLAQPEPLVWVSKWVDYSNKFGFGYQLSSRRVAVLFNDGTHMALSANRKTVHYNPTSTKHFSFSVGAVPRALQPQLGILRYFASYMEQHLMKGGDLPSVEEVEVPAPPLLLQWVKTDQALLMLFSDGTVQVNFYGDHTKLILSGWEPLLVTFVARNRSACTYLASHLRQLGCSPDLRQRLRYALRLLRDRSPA

PRKACG (human) = PRKACG (human) (UniProt P22612)
PRKCE (human) = PRKCE (human) (UniProt Q02156)
PRKCI (human) = PRKCI (human) (UniProt P41743)
PRKCQ (human) = PRKCQ (human) (UniProt Q04759)
PRKD1 (human) = PRKD1 (human) (UniProt Q15139)
Sequence of PRKD1 (human) (Q15139 whole entry, looked up): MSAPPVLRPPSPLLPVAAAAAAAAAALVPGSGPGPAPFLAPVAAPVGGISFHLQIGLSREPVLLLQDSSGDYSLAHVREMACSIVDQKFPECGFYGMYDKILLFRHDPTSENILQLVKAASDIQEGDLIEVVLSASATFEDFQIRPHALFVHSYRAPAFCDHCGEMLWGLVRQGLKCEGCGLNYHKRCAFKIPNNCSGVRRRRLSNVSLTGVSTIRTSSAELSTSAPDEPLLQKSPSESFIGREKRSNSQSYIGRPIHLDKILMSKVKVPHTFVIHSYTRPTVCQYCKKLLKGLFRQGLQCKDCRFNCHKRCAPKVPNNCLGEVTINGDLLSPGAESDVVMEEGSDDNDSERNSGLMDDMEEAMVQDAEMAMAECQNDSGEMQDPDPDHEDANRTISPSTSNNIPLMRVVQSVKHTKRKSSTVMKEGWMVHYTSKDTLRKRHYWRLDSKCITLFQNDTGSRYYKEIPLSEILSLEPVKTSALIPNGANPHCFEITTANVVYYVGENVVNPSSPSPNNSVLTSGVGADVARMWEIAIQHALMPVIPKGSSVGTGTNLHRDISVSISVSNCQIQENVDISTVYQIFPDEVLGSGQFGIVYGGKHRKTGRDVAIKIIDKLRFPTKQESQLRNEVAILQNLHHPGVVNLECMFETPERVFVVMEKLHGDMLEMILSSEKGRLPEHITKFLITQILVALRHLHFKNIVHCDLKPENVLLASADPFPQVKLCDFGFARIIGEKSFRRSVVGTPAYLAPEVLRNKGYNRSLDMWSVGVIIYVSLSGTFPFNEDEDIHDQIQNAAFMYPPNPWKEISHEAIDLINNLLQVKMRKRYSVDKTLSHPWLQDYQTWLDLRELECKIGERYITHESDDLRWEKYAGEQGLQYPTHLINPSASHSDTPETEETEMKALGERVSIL

PTK2B (human) = PTK2B (human) (UniProt Q14289)
PTK6 (human) = PTK6 (human) (UniProt Q13882)
SGK2 (human) = SGK2 (human) (UniProt Q9HBY8)
SRC (human) = SRC (human) (UniProt P12931)
SRMS (human) = SRMS (human) (UniProt Q9H3Y6)
STK33 (human) = STK33 (human) (UniProt Q9BYT3)
TLK2 (human) = TLK2 (human) (UniProt Q86UE8)
TNK2 (human) = TNK2 (human) (UniProt Q07912)
Sequence of TNK2 (human) (Q07912 whole entry, looked up): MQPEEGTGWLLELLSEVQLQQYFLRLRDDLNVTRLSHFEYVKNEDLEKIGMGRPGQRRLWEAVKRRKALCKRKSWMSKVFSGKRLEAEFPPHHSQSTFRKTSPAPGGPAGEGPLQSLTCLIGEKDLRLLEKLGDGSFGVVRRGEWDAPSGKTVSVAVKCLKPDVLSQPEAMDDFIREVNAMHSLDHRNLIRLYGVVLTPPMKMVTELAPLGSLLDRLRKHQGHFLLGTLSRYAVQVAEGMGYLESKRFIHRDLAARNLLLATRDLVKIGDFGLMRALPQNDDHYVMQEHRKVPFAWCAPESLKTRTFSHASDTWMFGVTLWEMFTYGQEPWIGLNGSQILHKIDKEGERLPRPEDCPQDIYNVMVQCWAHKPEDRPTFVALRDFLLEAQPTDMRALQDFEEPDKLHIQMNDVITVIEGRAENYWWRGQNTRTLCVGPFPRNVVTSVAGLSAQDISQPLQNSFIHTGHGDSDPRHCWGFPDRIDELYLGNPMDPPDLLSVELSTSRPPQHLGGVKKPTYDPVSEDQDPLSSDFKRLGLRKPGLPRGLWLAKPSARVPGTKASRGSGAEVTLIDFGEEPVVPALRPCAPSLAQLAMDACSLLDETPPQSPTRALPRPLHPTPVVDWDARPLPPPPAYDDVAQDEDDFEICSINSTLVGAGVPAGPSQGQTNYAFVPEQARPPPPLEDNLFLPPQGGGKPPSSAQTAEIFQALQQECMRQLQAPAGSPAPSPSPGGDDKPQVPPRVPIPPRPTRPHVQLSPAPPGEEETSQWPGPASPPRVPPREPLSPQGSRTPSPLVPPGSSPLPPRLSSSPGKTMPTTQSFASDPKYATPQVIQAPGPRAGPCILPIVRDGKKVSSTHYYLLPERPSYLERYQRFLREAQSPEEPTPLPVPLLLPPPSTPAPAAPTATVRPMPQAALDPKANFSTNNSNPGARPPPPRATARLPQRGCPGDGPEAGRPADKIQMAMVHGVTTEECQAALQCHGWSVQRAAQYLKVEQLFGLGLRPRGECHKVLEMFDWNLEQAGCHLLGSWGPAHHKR

TSSK1B (human) = TSSK1B (human) (UniProt Q9BXA7)
ULK3 (human) = ULK3 (human) (UniProt Q6PHR2)
WNK2 (human) = WNK2 (human) (UniProt Q9Y3S1)

Sequence of CAMK1G (human) (Q96NX5 whole entry, looked up): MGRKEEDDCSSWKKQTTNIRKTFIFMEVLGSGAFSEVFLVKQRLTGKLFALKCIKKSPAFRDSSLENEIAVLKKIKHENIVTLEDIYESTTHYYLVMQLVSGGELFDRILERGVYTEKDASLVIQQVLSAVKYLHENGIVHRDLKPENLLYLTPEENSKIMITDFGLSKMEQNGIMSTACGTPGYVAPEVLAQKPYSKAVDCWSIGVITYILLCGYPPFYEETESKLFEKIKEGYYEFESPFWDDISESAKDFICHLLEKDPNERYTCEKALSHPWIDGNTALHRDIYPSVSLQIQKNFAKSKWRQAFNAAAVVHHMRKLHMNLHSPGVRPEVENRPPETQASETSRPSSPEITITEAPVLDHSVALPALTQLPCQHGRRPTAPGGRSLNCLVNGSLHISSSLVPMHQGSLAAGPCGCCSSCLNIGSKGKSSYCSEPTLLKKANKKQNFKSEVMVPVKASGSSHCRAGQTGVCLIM

## CC[C@H](C)n1cc(C)c2c(C(=O)NCc3c(C)cc(C)[nH]c3=O)cc(-c3ccc(N4CCNCC4)nc3)cc21
ABL1 (human)
  residual activity: 84%
ACVR1 (human)
  residual activity: 92.5%
BRSK2 (human)
  residual activity: 103%
CAMK1G (human)
  residual activity: 84%
CDC42BPB (human)
  residual activity: 101%
CDK1 CCNA2 (human)
  residual activity: 92.5%
CDK2 CCNE1 (human)
  residual activity: 96%
CSNK1G3 (human)
  residual activity: 98%
DDR2 (human)
  residual activity: 102%
DMPK (human)
  residual activity: 100%
ERBB4 (human)
  residual activity: 93.5%
FGFR1 (human)
  residual activity: 84.5%
FYN (human)
  residual activity: 100%
HIPK1 (human)
  residual activity: 99%
KIT (human)
  residual activity: 99%
MAP2K1 (human)
  residual activity: 102%
MAPKAPK5 (human)
  residual activity: 86%
MARK2 (human)
  residual activity: 92.5%
MARK3 (human)
  residual activity: 110%
MKNK1 (human)
  residual activity: 97%
MKNK2 (human)
  residual activity: 98%
MST1R (human)
  residual activity: 97%
MYLK2 (human)
  residual activity: 96.5%
NEK2 (human)
  residual activity: 103%
NLK (human)
  residual activity: 95%
OXSR1 (human)
  residual activity: 92.5%
PAK3 (human)
  residual activity: 93.5%
PLK3 (human)
  residual activity: 106%
PRKACG (human)
  residual activity: 100%
PRKCE (human)
  residual activity: 99.5%
PRKCI (human)
  residual activity: 99.5%
PRKCQ (human)
  residual activity: 99.5%
PRKD1 (human)
  residual activity: 100%
PTK2B (human)
  residual activity: 110%
PTK6 (human)
  residual activity: 93%
SGK2 (human)
  residual activity: 105%
SRC (human)
  residual activity: 83.5%
SRMS (human)
  residual activity: 93.5%
STK33 (human)
  residual activity: 94.5%
TLK2 (human)
  residual activity: 101%
TNK2 (human)
  residual activity: 93.5%
TSSK1B (human)
  residual activity: 102%
ULK3 (human)
  residual activity: 104%
WNK2 (human)
  residual activity: 93%

Source: the kinase profiling compilation of Christmann-Franck et al. (2016)
